Measured values: patent US12509460B2 (Skyhawk Therapeutics, Inc., priority 2019, dated 2025)
Where two headings read alike, the source gives them in different places.

Assays:
[1] = tested on: SMN protein in spinal muscular atrophy (SMA) patient fibroblasts (GM03813, Coriell); test: SMN protein assay, Mesoscale Discovery (MSD); assay type: cell-based, human; settings: read-out: SMN2 protein EC50
Outline: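 SMA patient fibroblasts (GM03813) seeded at 7000 cells/well and exposed to compound at 2.5 μM to 0.6 nM for 48 hours. Lysates assayed for SMN by MSD immunoassay, with absolute SMN amount calculated from a per-plate SMN standard curve (1 μg/ml to 19.5 pg/ml).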

[2] = Quantitative splicing assay (HTT), qPCR; assay type: cell-based, human; settings: Homo sapiens, GM04724, 24 h, GM04724 lymphoblasts, read-out: HTT Splicing: E49-50 EC50
Description: Example A9: Quantitative Splicing Assay (HTT)
GM04724 (CAG 70/20) Huntington's disease patient lymphoblasts (Coriell) are plated in 96-well v-bottom plates at 50,000 cells/well. Immediately after plating, cells are dosed with compound for 24 h at concentrations ranging from 2.5 uM to 0.15 nM (0.1% DMSO). Treated cells are lysed and cDNA synthesized using the Fast Advanced Cells-to-Ct kit (Thermofisher A35378) according to the manufacturer's instructions. 2 uL of each cDNA are used in qPCR reactions to confirm the compound-induced inclusion of a cryptic exon within intron 49 of the Huntingtin (HTT) transcripts. The qPCR reactions are prepared in 384-well plates in 10 uL volume, using TagMan™ Fast Advanced Master Mix [ThermoFisher, 4444965] with primers and probes shown in the table below. Reactions are run in a Quant studio 6 qPCR instrument with default settings.

[3] = tested on: mHTT protein in GM04724 (CAG 70/20) Huntington's disease patient lymphoblast cells; test: mHTT protein assay, 2B7-MW1 assay via Mesoscale Discovery (MSD); assay type: cell-based, human
Outline: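 Patient lymphoblasts treated 48 h with compound from 10 μM to 0.6 nM. mHTT quantified by MSD 2B7-MW1 immunoassay, whose signal depends on polyQ expansion and HTT size. Viability measured on a replicate plate by CellTiter Glo.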

[4] = tested on: MDR1-MDCK cell monolayers; test: Blood-brain-barrier (BBB) penetration potential via MDCK-MDR1 permeability assay
MDR1 = test: as above; settings: dog, MDCK-MDR1, pH 7.4, MDCK-MDR1: Efflux
MDR1 (P-gp) = test: as above; settings: dog; for Papp A→B at 120 min, 5 μM: MDCK-MDR1, pH 7.4, MDCK-MDR1: Papp A-B; for Papp B→A at 120 min, 5 μM: MDCK-MDR1, pH 7.4, MDCK-MDR1: Papp B-A
[5] = tested on: SMN FL and SMN Δ7 in spinal muscular atrophy (SMA) patient fibroblasts (GM03813, Coriell); test: Quantitative splicing assay (SMN), qPCR; assay type: cell-based, human; settings: Homo sapiens, Fibroblast, 24 h, read-out: SMN2 Splicing FL EC50
Description: Spinal muscular atrophy (SMA) patient fibroblasts (GM03813, Coriell) are plated in 96-well plates at 50,000 cells/well. […] Treated cells are lysed and cDNA synthesized using the Fast Advanced Cells-to-Ct kit (Thermofisher A35378) according to the manufacturer's instructions. 2 μL of each cDNA are used in qPCR reactions. […] Reactions are run in a Quant Studio 6 qPCR instrument with default settings.

[6] = SMA patient fibroblasts GM03813, 48 hours, MSD
[7] = GM04724 Huntington's disease patient lymphoblasts
[8] = SMA patient fibroblasts GM03813, 24 h, qPCR

Row | Compound | EC50 [1, 6] [nM] | EC50 ([2]; qPCR) [nM] | EC50 [3, 7] [nM] | MDCK-MDR1: % Recov A-B ([4]; A-B direction) [%] | MDCK-MDR1: % Recov B-A ([4]; B-A direction) [%] | efflux ratio at 120 min, 5 μM (MDR1; efflux ratio) | Papp A→B at 120 min, 5 μM (MDR1 (P-gp); A-B direction) [×10⁻⁶ cm/s] | Papp B→A at 120 min, 5 μM (MDR1 (P-gp); B-A direction) [×10⁻⁶ cm/s] | EC50 [5, 8] [nM] | EC50 ([1]; SMA patient fibroblasts (GM03813), 48 hours) [nM] | EC50 [2] [nM] | EC50 ([3]; GM04724 (CAG 70/20) Huntington's disease patient lymphoblasts) [nM] | MDCK-MDR1: % Recov A-B ([4]; A-B) [%] | MDCK-MDR1: % Recov B-A ([4]; B-A) [%] | efflux ratio at 120 min, 5 μM (MDR1) | Papp A→B at 120 min, 5 μM (MDR1 (P-gp); A-B) [×10⁻⁶ cm/s] | Papp B→A at 120 min, 5 μM (MDR1 (P-gp); B-A) [×10⁻⁶ cm/s] | EC50 ([5]; SMA patient fibroblasts (GM03813)) [nM]
1 | CN(c1ccc(-c2cc(F)c(-c3ccn(C)c(=O)c3)cc2O)nn1)[C@H]1C[C@@H]2CC[C@@H](N2)[C@H]1F [Compound 1B, 4-(2-fluoro-4-(6-(((1R,2R,3S,5S)-2-fluoro-8-azabicyclo[3.2.1]octan-3-yl)(methyl)amino)pyridazin-3-yl)-5-hydroxyphenyl)-1-methylpyridin-2(1H)-one] | 0.01 to 15 | 0.01 to 15 | 0.01 to 15 | 97 | 98 | 83 | 0.49 | 40.4 | 0.01 to 15 |  |  |  |  |  |  |  |  | 
2 | CN(c1ccc(-c2ccc(-c3ccn(C)n3)cc2O)nn1)[C@@H]1C[C@H]2CC[C@H](N2)[C@@H]1F (single isomer, unassigned) [Compound 36A] | 0.01 to 15 | 16 to 50 | 16 to 50 | 68 | 82 | 10 | 3.68 | 38.6 | 16 to 50 |  |  |  |  |  |  |  |  | 
3 | CN(c1ccc(-c2cc3oc(C(=O)N4CCC4)cc3cc2O)nn1)[C@H]1C[C@@H]2CC[C@@H](N2)[C@H]1F [Compound 112B, azetidin-1-yl(6-(6-(((1R,2R,3S,5S)-2-fluoro-8-azabicyclo[3.2.1]octan-3-yl)(methyl)amino)pyridazin-3-yl)-5-hydroxybenzofuran-2-yl)methanone] |  |  |  |  |  |  |  |  |  | 0.01 to 15 | 16 to 50 | 0.01 to 15 | 98 | 81 | 95 | 0.5 | 47.3 | 0.01 to 15
4 | CNC(=O)c1cc(O)c(-c2ccc(N(C)[C@H]3C[C@@H]4CC[C@@H](N4)[C@H]3F)nn2)cc1F [Compound 47B, 2-fluoro-4-(6-(((1R,2R,3S,5S)-2-fluoro-8-azabicyclo[3.2.1]octan-3-yl)(methyl)amino)pyridazin-3-yl)-5-hydroxy-N-methylbenzamide] | 16 to 50 | 51 to 100 | 51 to 100 | 101 | 120 | 40 | 1.26 | 49.8 | 51 to 100 |  |  |  |  |  |  |  |  | 
5 | CN(c1ccc(-c2cc3oc(=O)n(C)c3cc2O)nn1)[C@@H]1C[C@H]2CC[C@H](N2)[C@@H]1F (single isomer, unassigned) [Compound 79A] | 0.01 to 15 | 16 to 50 | 0.01 to 15 | 89 | 99 | 14 | 2.51 | 34.9 | 16 to 50 |  |  |  |  |  |  |  |  | 
6 | CN(c1ccc(-c2cc3ccncc3cc2O)nn1)[C@H]1C[C@@H]2CC[C@@H](N2)[C@H]1F (single isomer, unassigned) [Compound 87B] | 0.01 to 15 | 0.01 to 15 | 0.01 to 15 | 70 | 88 | 9 | 3.3 | 28.7 | 0.01 to 15 |  |  |  |  |  |  |  |  | 
7 | CN(c1ccc(-c2ccc(-c3cn[nH]c3)cc2O)nn1)[C@@H]1C[C@H]2CC[C@H](N2)[C@@H]1F (single isomer, unassigned) [Compound 42A] | 0.01 to 15 | 0.01 to 15 | 0.01 to 15 | 87 | 91 | 43 | 0.86 | 36.8 | 0.01 to 15 |  |  |  |  |  |  |  |  | 
8 | CN(c1ccc(-c2ccc(C#N)cc2O)nn1)[C@@H]1C[C@H]2CCC[C@H](N2)[C@@H]1F [Compound 39A, 4-(6-(((1S,2S,3R,5R)-2-fluoro-9-azabicyclo[3.3.1]nonan-3-yl)(methyl)amino)pyridazin-3-yl)-3-hydroxybenzonitrile] | 0.01 to 15 | 16 to 50 | 16 to 50 | 83 | 76 | 5 | 8.1 | 40.5 | 16 to 50 |  |  |  |  |  |  |  |  | 
9 | CN(c1ccc(-c2cc3ncccc3cc2O)nn1)[C@@H]1C[C@H]2CCC[C@H](N2)[C@@H]1F [Compound 78A, 7-(6-(((1S,2S,3R,5R)-2-fluoro-9-azabicyclo[3.3.1]nonan-3-yl)(methyl)amino)pyridazin-3-yl)quinolin-6-ol] | 16 to 50 | 16 to 50 | 16 to 50 | 74 | 89 | 23 | 2.19 | 50.5 | 51 to 100 |  |  |  |  |  |  |  |  | 
10 | COc1cnc(-c2ccc(-c3ccc(N(C)[C@H]4C[C@@H]5CCC[C@@H](N5)[C@H]4F)nn3)c(O)c2)cn1 [Compound 29B, 2-(6-(((1R,2R,3S,5S)-2-fluoro-9-azabicyclo[3.3.1]nonan-3-yl)(methyl)amino)pyridazin-3-yl)-5-(5-methoxypyrazin-2-yl)phenol] | 0.01 to 15 | 16 to 50 | 0.01 to 15 | 21 | 48 | 4 | 1.54 | 5.63 | 501 to 10000 |  |  |  |  |  |  |  |  | 
11 | CN(c1ccc(-c2cc3ncccc3cc2O)nn1)[C@H]1C[C@@H]2CCC[C@@H](N2)[C@H]1F [Compound 78B, 7-(6-(((1R,2R,3S,5S)-2-fluoro-9-azabicyclo[3.3.1]nonan-3-yl)(methyl)amino)pyridazin-3-yl)quinolin-6-ol] | 0.01 to 15 | 0.01 to 15 | 0.01 to 15 | 73 | 79 | 12 | 4.03 | 50.3 | 0.01 to 15 |  |  |  |  |  |  |  |  | 
